Experimental data taken from patent US10463754B2, “Process for decontaminating or sterilizing an article” (priority 2014, dated 2019).
Where two headings read alike, the source gives them in different places.

Tested on: spores of Bacillus subtilis
Type: cell-based
Procedure: The efficacy of the inventive process is assessed using a time kill suspension test method and spores of Bacillus subtilis.
Peracetic acid (PAA) and hydrogen peroxide (H2O2) are prepared as concentrated stocks (3× concentrate). Each test contains 100 μl of the PAA concentrate and 100 μl of the H2O2 concentrate. Controls containing only PAA or H2O2 are also prepared. These contain 100 μl of either the PAA concentrate or H2O2 concentrate and 100 μl of de-ionized water. To each test, 100 μl of spores are added while starting the timer concurrently. The samples are mixed thoroughly. The temperature of the samples is room temperature. At the appropriate contact times, 10 μl of the appropriate test sample are placed into 90 μl of the appropriate neutralizing solution, mixed thoroughly and incubated for at least 10 minutes. Ten fold serial dilutions are prepared through 10^−6 and plated using the drop counting method. The plates are then incubated aerobically at 37° C. for 1-2 days. Following incubation, colony forming units (CFU) are counted using standard plate count techniques and converted to log 10 values for analysis.

Row | SMILES | Time (min) to achieve 4 log reduction (H2O2 0.10% by weight, PAA 0.00% (H2O2 alone), extrapolated from experimental data) [min] | Time (min) to achieve 4 log reduction (H2O2 0.20% by weight, PAA 0.00% (H2O2 alone), extrapolated from experimental data) [min] | Time (min) to achieve 4 log reduction (H2O2 0.40% by weight, PAA 0.00% (H2O2 alone), extrapolated from experimental data) [min] | Time (min) to achieve 4 log reduction (H2O2 0.80% by weight, PAA 0.00% (H2O2 alone)) [min] | Time (min) to achieve 4 log reduction (H2O2 1.60% by weight, PAA 0.00% (H2O2 alone)) [min] | Time (min) to achieve 4 log reduction (H2O2 3.20% by weight, PAA 0.00% (H2O2 alone)) [min] | Time (min) to achieve 4 log reduction (H2O2 6.40% by weight, PAA 0.00% (H2O2 alone), room temperature) [min] | Time (min) to achieve 4 log reduction (PAA 0.005% by weight, H2O2 0.00% (PAA alone), extrapolated from data for PAA 0.08, 0.16 and 0.32%) [min] | Time (min) to achieve 4 log reduction (PAA 0.01% by weight, H2O2 0.00% (PAA alone), extrapolated from data for PAA 0.08, 0.16 and 0.32%) [min] | Time (min) to achieve 4 log reduction (PAA 0.02% by weight, H2O2 0.00% (PAA alone), extrapolated from data for PAA 0.08, 0.16 and 0.32%) [min] | Time (min) to achieve 4 log reduction (PAA 0.04% by weight, H2O2 0.00% (PAA alone), extrapolated from data for PAA 0.08, 0.16 and 0.32%) [min] | Time (min) to achieve 4 log reduction (PAA 0.08% by weight, H2O2 0.00% (PAA alone)) [min] | Time (min) to achieve 4 log reduction (PAA 0.16% by weight, H2O2 0.00% (PAA alone)) [min]
1 | OO [H2O2, hydrogen peroxide] | 2305.13 | 1213.99 | 639.34 | 343.04 | 168.96 | 97.28 | 48.64 |  |  |  |  |  | 
2 | CC(=O)OO [PAA, Peracetic acid] |  |  |  |  |  |  |  | 711625 | 67744.68 | 6449.101 | 613.9362 | 70.40 | 4.64
